Tests used:
[1] = test system: HLA-A*02:01 transgenic mouse; assay: Test 7: in vivo adjuvant activity, vaccine d (Peptide SEQ ID No. 5), IFNγ ELISPOT; settings: added to vaccine d; 330 ng per body, once; FIG. 4
Protocol: (§1) Evaluation of In Vivo Adjuvant Activity in HLA-A*02:01 Transgenic Mouse
The in vivo adjuvant activity of the compound of Example 1 was evaluated in the following procedure. To a vaccine prepared by mixing Peptide SEQ ID No. 5 prepared in Reference example 5 with Montanide ISA 51 VG (hereinafter, referred to as “vaccine d”) was added the compound prepared in Example 1 to prepare a vaccine. The vaccine was administered to a HLA-A*02:01 transgenic mouse, and the adjuvant activity of the vaccine was evaluated by the method of testing antigen-specific CTL induction. The VLQELNVTV in Peptide SEQ ID No. 5 corresponds to an antigen peptide derived from an HLA-A*02:01-restricted Proteinase-3 protein.
The character for inducing CTLs specific to the antigen peptide (SEQ ID No. 5) by vaccine d was evaluated by measuring whether IFNγ can be produced upon stimulation of splenocytes from the mouse with the peptide. In addition, the character for exerting in vivo adjuvant activity by the compound in Example 1 was evaluated by comparing the number of CTLs induced by vaccine d and the number of CTLs induced by the vaccine prepared by adding the compound prepared in Example 1 to vaccine d, and checking presence or absence of the increase on the number.
Specifically, Peptide of SEQ ID No. 5 was dissolved in DMSO, and then diluted with water for injection to concentrations of 2 mg/mL. […]

[2] = test system: HLA-A*02:01 transgenic mouse; assay: Test 16: in vivo adjuvant activity, cocktail vaccine k (liposome formulation 1), IFNγ ELISPOT; settings: added to cocktail vaccine k (liposome formulation 1); 0.4 nmol per body, twice; FIG. 19
Protocol: as §1
The in vivo adjuvant activity of the compound of Example 1 was evaluated in the following procedure. To a vaccine (liposome formulation 1) comprising Compound of formula 4 prepared in Reference example 8 and Peptide SEQ ID No. 3 prepared in Reference example 3 (hereinafter, referred to as “cocktail vaccine k”) was added the compound prepared in Example 1 to prepare a vaccine. The vaccine was administered to a HLA-A*02:01 transgenic mouse, and the adjuvant activity of the vaccine was evaluated by the method of testing antigen-specific CTL induction.
For example, the above liposome formulation 1 was prepared as follows. 47.1 mg of hydrogenated soybean phosphatidylcholine and 15.47 mg of cholesterol were dissolved in t-butyl alcohol, and the mixture was lyophilized. […]
Cocktail vaccine k was injected to mice intradermally at the tail base area in an amount for administering 500 μg of Compound of formula 4 per body and 375 μg of Peptide SEQ ID No. 3 per body. […] Then, after removal of the supernatant from the wells, stained spots on the ELISPOT plate were counted.

CCCCCNc1nc(N)nc(C)c1Cc1ccc(CN(C)CCOCCOCCOCCOCCO)cc1OC [Example 1, 1-(4-{[2-amino-4-methyl-6-(pentylamino)pyrimidin-5-yl]methyl}-3-methoxyphenyl)-2-methyl-5,8,11,14-tetraoxa-2-azahexadecan-16-ol·trifluoroacetate]
CTL counts responsive to Peptide of SEQ ID No. 5 compared with adding no compound [1]: more | CTL counts responsive to Peptide SEQ ID No. 1 compared with adding no compound [2]: more

Reference: patent US12427192B2, “Water soluble adjuvant and composition containing same” (Sumitomo Pharma Co., Ltd., priority 2019, dated 2025)
